Test results from PubChem BioAssay (NCI).
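Exposure lasted 48 hours, with cells grown in 96-well plates and compounds tested at five concentrations. The concentration for 50% growth inhibition is given as GI50. The concentration for full growth arrest is given as TGI.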 *1 amine or outer side, *2 acyl side, *3 side chain or, on linkers, in order; H or OH if unused. Where a SMILES comes first, the peptide text is derived from it. Bridges are numbered along the chain shown (N, C = ends). [ ]: non-standard residue; d: D form. The star is where a group is joined. Phe(3-Me) = Cc1cccc(C[C@H](N)C(=O)O)c1; NH(4-Cl-2-F-phenyl) = Fc1cc(Cl)ccc1N*; Pro(4R-Me) = C[C@H]1CN[C@H](C(=O)O)C1; Propanoyl(3-NMe2) = CN(C)CCC(=O)*; Hyp = O=C(O)[C@@H]1C[C@@H](O)CN1; aThr = C[C@H](O)[C@H](N)C(=O)O; Pip = O=C(O)[C@@H]1CCCCN1; CO = O=C([*:1])[*:2]

What was measured:
Assay in all cases: NCI anticancer screen, dose series, 48 h
[1] = system: A498 renal
[2] = system: PC-3 prostate
[3] = system: SR leukemia
[4] = system: SF-295 CNS
[5] = system: HCC-2998 colon
[6] = system: DU-145 prostate
[7] = system: NCI-H522 lung
[8] = system: NCI-H226 lung
[9] = system: 786-0 renal
[10] = system: LOX IMVI melanoma

Structure (SMILES)	GI50 [1] [µM]	TGI [1] [µM]	GI50 [2] [µM]	TGI [2] [µM]	GI50 [3] [µM]	TGI [3] [µM]	GI50 [4] [µM]	TGI [4] [µM]	GI50 [5] [µM]	TGI [5] [µM]	GI50 [6] [µM]	TGI [6] [µM]	GI50 [7] [µM]	GI50 [8] [µM]	TGI [8] [µM]	GI50 [9] [µM]	TGI [9] [µM]	GI50 [10] [µM]	TGI [10] [µM]	TGI [7] [µM]
O=c1cccc(C#CC#C/C=C/CO)o1	7.57	22.7	2.94	11.3	> 100	> 100	5.84	18.8	2.09	3.52	3.4	12.4	1.45	1.31	7.68	3.72	> 27.5	1.55	3.32	
O=[N+]([O-])c1ccc(-c2cn(-c3ccc(Cl)cc3)cn2)cc1		> 100		> 100		> 100		36.9		> 100		> 100			> 100		36.5		> 100	14.4
COc1cc(NC(N)=NCCC(C)(C)c2ccc(C(F)(F)F)cc2)ncc1C#N	1.88	3.69	1.55	3.17	1.7	4.06	1.6	3.06	1.89	3.34	1.93	3.51	1.44	1.6	3.36	1.71	3.14	1.58	2.92	2.97
COc1cc(C2C(C#N)=C(N)Oc3cc(O)ccc32)cc(OC)c1OC (configuration not stated)	0.218	1.45	0.619	> 100	0.335	> 100	0.374	> 100	0.964	> 54.8	0.659	> 100	0.281	6.98	> 100	0.668	> 100	0.546	> 100	3.85
CC[C@@]1(O)C(=O)OCc2c1cc1n(c2=O)Cc2c-1nc1ccccc1c2/C=N/OC(C)(C)C	< 0.0169	0.169	0.0769	27.2	< 0.01	0.108	< 0.01	0.599	0.183	14.1	< 0.01	13.5	< 0.0124	< 0.01	0.0355	< 0.01	11.2	< 0.01	0.133	0.0812
COc1ccc(-c2nocc2-c2cc(OC)c(OC)c(OC)c2)cc1	0.0441	2.9	0.0536	37.6	0.0497	> 76.3	0.0475	16.9	0.358	28	0.286	> 100	0.0323	14.9	56.1	0.109	31.6	0.212	> 74.5	0.499
CC(=O)Nc1sc2c(c1-c1nc3ccccc3s1)CNC2	7.4	14.9	3.37	18.4	1.68	12.6	2.25	9.93	2.58	9.92	2.93	> 50	2.62	3.27	16.7	2.61	9.6	1.67	6.74	10.8
CSc1nc2c(c(=O)[nH]1)C(c1ccc(Cl)cc1)C1=C(N2)/C(=C/c2ccc(Cl)cc2)CNC1 (configuration not stated)	2.68	11.3	1.99	5.1	1.9	5.87	1.96	4.43	1.96	3.57	3.36	11.6	1.85	1.62	3.27	2.02	4.46	1.9	3.81	4.81
Cc1cccc(C[C@H](NC(=O)Nc2ccc(Cl)cc2F)C(=O)N[C@@H]2C(=O)N3C[C@H](OC(=O)CCN(C)C)C[C@H]3C(=O)N3CCCC[C@H]3C(=O)N[C@@H](C)C(=O)N3C[C@H](C)C[C@H]3C(=O)O[C@H]2C)c1 ({NH(4-Cl-2-F-phenyl)-CO}-[Phe(3-Me)][aThr][Hyp](Propanoyl(3-NMe2))[Pip]A[Pro(4R-Me)]; ester 2-C)	0.43	3.29	0.368	1.76	0.624	3.94	0.426	2.15	0.476	1.77	0.514	5.86	0.495	0.45	2.19	1.39	5.66	0.683	2.2	2.47
O=S(=O)(NCCCNc1cc(-c2cn(-c3ccccc3)nc2-c2cccc(O)c2)ccn1)c1ccc(Cl)cc1	0.329	2.24	1.74	6.1	1.58	5.16	1.42	3.29	1.82	3.46	2.33	7.58	1.88	1.77	5.13	1.56	4.19	1.42	2.77	4.06
CCCCCCCCCC(CCCC(O)CC(=O)O)OC1OC(COC2OC(C)C(O)C(O)C2O)C(O)C(O)C1OC1OC(CO)C(O)C(O)C1OC1OC(C)C(O)C(O)C1O (configuration not stated)	> 40	> 40	> 40	> 40	> 40	> 40	> 40	> 40	> 40	> 40	> 40	> 40	> 40	> 40	> 40	> 40	> 40	> 40	> 40	> 40
C/C(=N\NC(=O)c1ccncc1)c1ccc(O)cc1O	8.61	> 100	10.9	> 100	4.16	> 100	2.39	6.69	3.59	> 100	3.63	> 100		5.14	80.9	5.84	> 100	3.46	> 100	
